{"source": "a melting point compilation (Tetko et al.; mined from patent text by program, amines drawn as free bases though some values may be those of a salt)", "data": [{"units": {"melting point": "°C"}, "values": [{"molecule": "Cc1c(C)c2c(c(C)c1NC(=O)c1ccc(F)cc1)C(c1ccccc1)C(C)(C)O2", "note": "(centres undefined)", "melting point": "156 to 158"}, {"molecule": "CN(CC(N)=O)C1Cc2ccccc2C1", "melting point": "122 to 123"}, {"molecule": "Cc1cc(CCC(=O)OC(C)(C)C)cc(-c2nc(=O)c3ccccc3s2)n1", "melting point": "129 to 130"}, {"molecule": "NC(=O)CN1C(=O)CC2Cc3c(Cl)cccc3C21", "note": "(centres undefined)", "melting point": "186 to 188"}, {"molecule": "CCOC(=O)c1cc(=O)c2cc3c(c(CC4CO4)c2o1)CCCC3", "note": "(centres undefined)", "melting point": "138 to 140"}, {"molecule": "CO[C@@H]1CN(CCCOc2ccc(F)cc2)CC[C@@H]1NC(=O)c1cc(Cl)c(N)cc1O", "note": "(relative stereo)", "melting point": "146 to 148"}, {"molecule": "CC(C)n1nc(-c2c(-c3ccccc3)nn3ccc(Oc4ccccn4)cc23)ccc1=O", "melting point": "140 to 142"}, {"molecule": "CCNC1N=CN(c2ccccc2C)C(=O)N1", "note": "(centres undefined)", "melting point": "208 to 210"}, {"molecule": "O=S(=O)(Cc1ccccc1)c1nnnn1Cc1ccccc1", "melting point": "94 to 96"}, {"molecule": "CC(C)c1nc(COC2=CCCCC2)n(C)c1Sc1cc(Cl)cc(Cl)c1", "melting point": "69 to 71"}, {"molecule": "Cc1ccc(NCCSC#N)c([N+](=O)[O-])c1", "melting point": "123 to 125"}, {"molecule": "COC(C)(CCCCC(C)(C)O)c1cccc(C=Cc2cc(O)cc(O)c2)c1", "note": "(centres undefined)", "melting point": "65 to 75"}, {"molecule": "CC(=O)N[C@@H](CO)C(=O)NCc1ccc(N)cc1", "melting point": "158 to 160"}, {"molecule": "CN(C)C1(c2ccccc2)CCC(C#N)(N2CCCC2)CC1", "note": "(centres undefined)", "melting point": "136 to 142"}, {"molecule": "CC(=Cc1cc([N+](=O)[O-])ccc1Cl)C(=O)O", "melting point": "228 to 230"}, {"molecule": "N#Cc1ccc2[nH]c(O)c(-c3ccc(CN4CCOCC4)cn3)c2c1", "melting point": "228 to 230"}, {"molecule": "CN1CCC(=C2c3ccccc3CCn3cc(-c4ccccc4)nc32)CC1", "melting point": 172}, {"molecule": "O=CNCCOc1cccc2c1c1ccccc1n2Cc1ccccc1", "melting point": "161 to 162"}, {"molecule": "N#Cc1ccc(N(Cc2ccc(OCc3ccccc3)cc2)n2cnnc2)cc1-c1cc2ccccc2o1", "melting point": "200 to 201"}, {"molecule": "COc1ccc(NC(=O)c2ccc(-c3ccc(C(=O)N4CCC4)cc3C)cc2)cc1N1CCN(C)CC1", "melting point": "167 to 170"}, {"molecule": "CC(=O)Nc1ccc(CN(C)C)c(O)c1", "melting point": "133 to 135"}, {"molecule": "CS(=O)(=O)Nc1c(-c2ccccc2)c(=O)[nH]c2cc(Cl)ccc12", "melting point": "222 to 224"}, {"molecule": "COC(=O)Cn1c(C(=O)Nc2nc(-c3cc(OC)c(Cl)cc3OC)c(CCC3CCCCC3)s2)c(C)c2cc(C)ccc21", "melting point": "166 to 168"}, {"molecule": "COc1ccc(-c2ccc3cnc(Nc4ccc5c(c4)N(S(C)(=O)=O)CCC5)nn23)cn1", "melting point": "202 to 203"}, {"molecule": "Cc1cn(-c2cccc(O)c2)cn1", "melting point": "203 to 205"}, {"molecule": "CSc1nnc(Sc2cc(C(C)(C)C)c(O)c(C(C)(C)C)c2)s1", "melting point": "144 to 145"}, {"molecule": "O=C(NN1CCCCC1)c1nn(-c2ccccc2-c2ccccc2Cl)c2c1C1CC3CC(C1)CC2C3", "melting point": 206}, {"molecule": "CCn1c(=O)c2nc(C=NO)cn2c2ccccc21", "melting point": "286 to 288"}, {"molecule": "N#Cc1c(Br)cc(Br)c(CCC(=O)O)c1Br", "melting point": "164 to 166"}, {"molecule": "CCOC(=O)C1(CC(N)=O)C(=O)N2CCOc3cc(Cl)cc1c32", "note": "(centres undefined)", "melting point": "227 to 229"}, {"molecule": "CN(C)CCCCC(=O)c1ccc2c(c1)C(=O)c1cc(C(=O)CCCCN(C)C)ccc1-2", "melting point": "150 to 151"}, {"molecule": "C#CCN(c1ccc(C(=O)O)cc1)C1CCc2cc3nc(C)[nH]c(=O)c3cc21", "note": "(racemic)", "melting point": 264}, {"molecule": "Cc1cc(C(O)(C(F)(F)F)C(F)(F)F)c2ccccc2c1NS(C)(=O)=O", "melting point": 174}, {"molecule": "COC(=O)Cc1ccc(C(F)(F)F)cc1NC(C)=O", "melting point": "92 to 94"}, {"molecule": "O=C(O)CCNc1cccc(Br)n1", "melting point": "108 to 109"}, {"molecule": "Nc1ccc(OS(=O)(=O)c2ccc(-n3ccnc3)cc2)cc1[N+](=O)[O-]", "melting point": 209}, {"molecule": "CC1Cc2ccc(Cl)cc2CN(CCO)C1=O", "note": "(centres undefined)", "melting point": "139 to 140"}, {"molecule": "COC(=O)C1=C(C)NC(C)=C(C(=O)OCCN2CCN(Cc3ccccc3)CC2)C1c1cccc([N+](=O)[O-])c1", "note": "(centres undefined)", "melting point": "106 to 108"}, {"molecule": "C=CCNc1nc(NCCCCCCCCC)c2scc(C)c2n1", "melting point": "65 to 66"}, {"molecule": "CC1=CC(=O)C=CC1(C)C(Cl)(Cl)Cl", "note": "(centres undefined)", "melting point": 57}, {"molecule": "CCNC(=O)c1ccccc1C(F)(F)F", "melting point": "73 to 76"}, {"molecule": "CCCCOCCOc1ccc(-c2cc(/C=C/C(=O)O)c3c(c2)CCCN3C)cc1", "melting point": "128 to 129"}, {"molecule": "CCCCc1nc(Cl)c(C(=O)O)n1Cc1ccc2oc(-c3ccccc3-c3nnn[nH]3)c(C(C)(C)C)c2c1", "melting point": "129 to 132"}, {"molecule": "O=C(O)C1Cc2cc(CCNS(=O)(=O)c3ccccc3)ccc2O1", "note": "(centres undefined)", "melting point": "132 to 133"}, {"molecule": "CCOC(=O)C1=C(C)NC(C)=C(C(=O)OCC)C1c1cc2ccccc2s1", "melting point": "167 to 169"}, {"molecule": "O=C1N[C@H](C(=O)NCCCCO[N+](=O)[O-])CS1", "melting point": "68 to 70"}, {"molecule": "COC(=O)c1c(-c2ccccc2F)c2cc(OCc3ccccc3)ccc2c(=O)n1CC(C)C", "melting point": "106 to 107"}, {"molecule": "NS(=O)(=O)c1ccc(-n2cc(-c3ccccc3)cc2-c2ccc(F)cc2)cc1", "melting point": "192 to 194"}, {"molecule": "CNC(=S)NS(=O)(=O)c1cc2c(cc1OC)OC(C)(C)C(NC(=O)c1cc(Cl)ccc1OC)C2", "note": "(centres undefined)", "melting point": "234 to 235"}]}]}
